Laboratory results taken from paper PMC6736568, “Discovery of Novel Anti-cryptosporidial Activities From Natural Products by in vitro High-Throughput Phenotypic Screening” (Frontiers in Microbiology, 2019).
Where two headings read alike, the source gives them in different places.

Experiments:
Cryptosporidium parvum = test: qRT-PCR assay of the growth of C. parvum in vitro in HCT-8 host cells (primary and secondary screening, EC50); assay type: cell-based
[1] = primary screening at 10 uM, from Hs18S ΔCT
[2] = primary screening at 10 uM, treated vs control

Molecule	Cytotoxicity (%) (HCT-8 host cells (Hs18S); [1])	Hs18S ΔCT (HCT-8 host cells (Hs18S); [2])	Inhibition (%) (Cryptosporidium parvum; primary screening at 10 uM)	further results
OC[C@H]1O[C@H](OCC2O[C@@H](O)[C@H](O)[C@@H](O)[C@@H]2O)[C@H](O)[C@@H](O)[C@H]1O (stereo partly shown) [MELIBIOSE]	-4.0	-0.06	-16.19	–
CCCCCCCCCCCCCCCCC(C(=O)O)C(O)(CC(=O)O)C(=O)O (stereo not shown) [AGARIC ACID]	18.9	0.30	-4.50	–
CCNC(=O)CC[C@H](N)C(=O)[O-].[K+] [THEANINE POTASSIUM]	-36.3	-0.45	-54.47	–
COc1cc(O)c(C(=O)/C=C/c2ccc(OC)c(O)c2)c(OC)c1 [2',3-DIHYDROXY-4,4',6'-TRIMETHOXYCHALCONE]	-22.2	-0.29	-6.64	–
O=C(/C=C/c1ccc(O)cc1)c1ccccc1O [2',4-DIHYDROXYCHALCONE]	8.3	0.13	-21.40	–
COc1c(-c2ccccc2)oc2cc(O)cc(O)c2c1=O [GALANGIN 3-O-METHYL ETHER]	–	–	-5.04	Cytotoxicity (%) (HCT-8 host cells (Hs18S); 10 µM): -45.3%
COc1ccc(-c2cc(=O)c3c(O)c(OC)c(OC)c(OC)c3o2)cc1OC [DEMETHYLNOBILETIN]	-4.6	-0.06	91.41	% Inhibition (3.3 uM) (Cryptosporidium parvum; secondary screening at 3.3 uM): 29%
O=C(O)CCCCCCCC(O)C(O)CCCCCCO (stereo not shown) [ALEURETIC ACID]	–	–	36.82	Hs18S ΔCT (HCT-8 host cells (Hs18S)): 0.24; Cytotoxicity (%) (HCT-8 host cells (Hs18S); 10 µM): 15.2
COc1ccc(-c2cc(=O)c3c(O)cc(OC)c(OC)c3o2)c(OC)c1 [5-HYDROXY-2',4',7,8-TETRAMETHOXYFLAVONE]	13.2	0.20	89.23	% Inhibition (3.3 uM) (Cryptosporidium parvum; secondary screening at 3.3 uM): -83%
CC(=O)NCCc1ccc(O)c(-c2c(O)c(O)c3c(c2O)C(=O)c2c(cc(O)c(C(=O)O)c2C(=O)O)C3=O)c1 [LACCAIC ACID A]	-6.6	–	21.81	–
CC1=CC2C(C(C)C)CCC(C)(O)C2CC1 (stereo not shown) [CADIN-4-EN-10-OL]	-34.1	-0.42	-28.21	–
CS(C)(=O)=O [DIMETHYLSULFONE]	46.5	0.90	65.78	% Inhibition (3.3 uM) (Cryptosporidium parvum; secondary screening at 3.3 uM): 61%
BLEOMYCIN (bleomycin B2 shown)	-16.8	-0.22	52.96	–
OC[C@@H](O)C(O)[C@H](O)CO [ARABITOL]	-2.6	-0.04	8.73	–
COc1ccc2c(=O)c(-c3ccc(O)cc3)coc2c1 [ISOFORMONONETIN]	-21.7	-0.28	-7.36	–
POLYMYXIN B SULFATE	-15.1	-0.20	-11.86	–
COc1cc2oc3cc(OC)c(OC)c(CC=C(C)C)c3c(=O)c2c(O)c1CC=C(C)C [1-HYDROXY-3,6,7-TRIMETHOXY-2,8-DIPRENYLXANTHONE]	7.7	0.12	-18.05	–
CC(C)CCC[C@@H](C)[C@H]1CC[C@H]2[C@@H]3CC[C@H]4CCCC[C@]4(C)[C@H]3CC[C@]12C [CHOLESTANE]	12.2	0.19	13.94	–
CC1=CC(=O)CC(C)(C)C1(O)/C=C/C(C)=C\C(=O)O (racemic) [ABSCISIC ACID (cis,trans; +/-)]	36.3	0.65	-7.09	–
CC1(C)C2CC(=O)[C@]3(C)C(CC[C@@]4(C)[C@H](c5ccoc5)OC(=O)[C@H]5O[C@]543)[C@@]2(C)C(=O)C[C@H]1O (stereo partly shown) [1,7-DIDEACETOXY-1,7-DIOXO-3-DEACETYLKHIVORIN]	-6.9	-0.10	26.84	–
O=C(O)c1cc(O)c(=O)c2c(O)c(O)c(O)cc2c1 [PURPUROGALLIN-4-CARBOXYLIC ACID]	7.3	0.11	2.20	–
AVERMECTIN A1a	1.6	0.02	97.32	% Inhibition (3.3 uM) (Cryptosporidium parvum; secondary screening at 3.3 uM): -85%
CC[C@H](C=C[C@@H](C)[C@H]1CC[C@H]2[C@@H]3CCC4=CC(=O)CC[C@]4(C)[C@H]3CC[C@]12C)C(C)C	–	–	–	Hs18S ΔCT (HCT-8 host cells (Hs18S)): 0.46; Cytotoxicity (%) (HCT-8 host cells (Hs18S); 10 µM): 27.4; % Inhibition (3.3 uM) (Cryptosporidium parvum): -6; Inhibition (%) (Cryptosporidium parvum; 10 µM): 64.69
AGELASINE (stereochemistry of diterpene unknown)	16.8	0.27	43.55	–
N[C@@H]1CONC1=O [CYCLOSERINE (D)]	-30.0	-0.38	-10.45	–

Molecule	Cytotoxicity (%) (HCT-8 host cells (Hs18S); [1])	Hs18S ΔCT (HCT-8 host cells (Hs18S); [2])	Inhibition (%) (Cryptosporidium parvum; primary screening at 10 uM)	further results
CC(C)c1c(O)c(-c2cc3c(c(C(C)C)c2O)CCC2C(C)(C)CCC[C@]32C)cc2c1CCC1C(C)(C)CCC[C@]21C (stereo partly shown) [PODOTOTARIN]	2.5	0.04	-4.91	–
CC(=O)OC/C=C(\C)CC/C=C(\C)CC/C=C(\C)CC/C=C(\C)CC/C=C(\C)CC/C=C(\C)CC/C=C(\C)CC/C=C(\C)CCC=C(C)C [SOLANESYL ACETATE]	–	–	15.24	Hs18S ΔCT (HCT-8 host cells (Hs18S)): -0.20; Cytotoxicity (%) (HCT-8 host cells (Hs18S); 10 µM): -14.8
O=c1cc(-c2cc(O)c(O)c(O)c2)oc2cc(O)cc(O)c12 [HIERACIN]	–	–	-2.75	Cytotoxicity (%) (HCT-8 host cells (Hs18S); 10 µM): 31.0%
Cc1cc2nc3c(=O)[nH]c(=O)nc-3n(C[C@H](O)[C@H](O)[C@H](O)COP(=O)([O-])O)c2cc1C.[Na+] [RIBOFLAVIN 5-PHOSPHATE SODIUM]	-25.0	-0.32	-3.47	–
CC(=O)c1c(O)cc(O)cc1O [PHLORACETOPHENONE]	26.5	0.44	-25.30	–
C[C@]12CC[C@H](O)C[C@@H]1CC[C@@H]1[C@@H]2CC[C@]2(C)C(=O)CC[C@@H]12 [EPIANDROSTERONE]	–	–	–	Hs18S ΔCT (HCT-8 host cells (Hs18S)): -0.05; inhibition at 10 µM (Cryptosporidium parvum; Cryptosporidium parvum, HCT-8): -36%
C[C@@H](N)[C@@H](O)c1ccccc1 [1R,2S-PHENYLPROPYLAMINE]	–	–	-7.00	Hs18S ΔCT (HCT-8 host cells (Hs18S)): -0.16; Cytotoxicity (%) (HCT-8 host cells (Hs18S); 10 µM): -12.0
C[C@@H](O)[C@H](N)C(=O)O [THREONINE (L)]	-19.5	-0.26	-20.50	–
O=C(O)[C@H](O)[C@@H](O)[C@H](O[C@@H]1O[C@H](CO)[C@H](O)[C@H](O)[C@H]1O)[C@H](O)CO [LACTOBIONIC ACID]	-27.5	-0.35	-17.48	–
COc1ccc2c(c1OC)C(=O)O[C@@H]2[C@H]1c2cc3c(cc2CCN1C)OCO3 [HYDRASTINE (1R, 9S)]	–	-0.18	-23.62	–
O=C(O)CC[N+](=O)[O-] [BOVINOCIDIN]	-25.1	-0.32	41.04	–
CN[C@@H]1[C@@H](O[C@H]2O[C@H](CO)[C@@H](N)[C@H](O)[C@H]2O)O[C@H]2C[C@@H](N)[C@@H](O[C@H]3[C@H](O)[C@@H](O)[C@H](N)C[C@@H]3N)O[C@@H]2[C@@H]1O.O=S(=O)(O)O [APRAMYCIN SULFATE]	-3.1	-0.04	42.68	–
OMEGA-3-ACID ESTERS (EPA shown)	–	–	4.36	Cytotoxicity (%) (HCT-8 host cells (Hs18S); 10 µM): -17.4%
COc1cc([C@@H]2c3cc4c(cc3[C@H](OC(C)=O)[C@H]3COC(=O)[C@@H]23)OCO4)cc(OC)c1OC [PICROPODOPHYLLIN ACETATE]	50.6	1.02	20.82	–
COC(=O)C1(C)CCCC2(C)c3ccc(O)c(C(C)C)c3CCC12 (stereo not shown) [TOTAROL-19-CARBOXYLIC ACID, METHYL ESTER]	22.4	0.37	-12.62	–
COc1ccc(-c2oc3cc(OC)c(OC)c(OC)c3c(=O)c2OC)cc1OC [HEXAMETHYLQUERCETAGETIN]	50.3	1.01	95.76	% Inhibition (3.3 uM) (Cryptosporidium parvum; secondary screening at 3.3 uM): -42%
COC[C@]12CN(C=O)[C@@H]3[C@@H]4[C@H](OC)[C@H]1[C@@]3([C@@H](OC)C[C@H]2O)[C@@H]1C[C@@]2(O)[C@H](OC(=O)c3ccccc3)[C@@H]1[C@]4(OC(C)=O)[C@@H](O)[C@@H]2OC [OXONITINE]	3.3	0.05	0.75	–
TANNIC ACID	17.0	0.27	-22.61	–
OC[C@H]1O[C@@H](O[C@H]2[C@H](O)[C@@H](O)[C@H](O)O[C@@H]2CO)[C@H](O)[C@@H](O)[C@@H]1O [CELLOBIOSE (D[+])]	–	0.91	-5.56	–
CC1(C)CCC[C@]2(C)[C@H]3CC(=O)O[C@]3(C)CC[C@@H]12 [SCLAREOLIDE]	32.7	0.57	26.58	–
CC1(C)C(=O)[C@@H]2O[C@@H]2[C@@]2(C)C1C[C@@H](O)[C@]1(C)C2CC[C@@]2(C)[C@H](c3ccoc3)OC(=O)C3OC321 (stereo partly drawn) [1,2alpha-EPOXYDEACETOXYDIHYDROGEDUNIN]	-12.9	-0.18	56.48	–
CC(=O)O[C@H]1CC[C@@]2(C)C(=CC[C@H]3[C@@H]4CC[C@H]([C@H](C)CCCC(C)C)[C@@]4(C)CC[C@@H]32)C1 [CHOLESTERYL ACETATE]	-5.8	-0.08	-22.86	–
LYSINE (L) HYDROCHLORIDE	-11.0	-0.15	-22.55	–
KHAYANTHONE	-0.3	-0.01	-5.94	–
GARLICIN	–	–	4.93	Cytotoxicity (%) (HCT-8 host cells (Hs18S); 10 µM): -30.8%
